US20150164910A1, “ANTIVIRAL COMPOUNDS AND METHODS OF USE” (The Regents of the University of Califonia, priority 2012, published 2015)

Legend:
CVB3 = assay: Time of addition experiment, CVB3 in HeLa cells; assay type: cell-based, coxsackievirus B3
CVB3-H3 = assay: Plaque reduction assay, CVB3-H3 in HeLa-RW cells; assay type: cell-based, coxsackievirus B3; conditions: compound added 30 min before infection, CVB3-H3 MOI 1, HeLa-RW, 6 hours; log10(titer with DMSO only/titer with inhibitor)
poliovirus-3 (PV-3) = assay type: cell-based; design: dose or concentration left out as unconfirmed; conditions: HeLa cells, MOI of 1, six hours (FIG. 6)
poliovirus 1 (PV-1) = assay type: cell-based; design: dose or concentration left out as unconfirmed; conditions: HeLa cells, MOI of 1, six hours (FIG. 6)
coxsackievirus B3 (CVB3) [1] = assay: Cell viability assay, prevention of cell death caused by CVB3 infection; assay type: cell-based; conditions: for Selectivity index: 50% Cytotoxic concentration/50% activity concentration; for IC50 / EC (peak activity): Enterovirus B; for IC50: read-out: 50% activity concentration (IC50); for EC (peak activity): HeLa-RW cells and CVB3 at low multiplicity of infection, read-out: Peak Activity Conc.
Procedure: (§1) Procedure: Enteroviruses rapidly cause cell death, and a cell viability assay was used to examine the cytotoxicity of each compound and to identify the concentration needed to prevent cell death caused by coxsackievirus B3 (CVB3) infection.
(§2) Compounds were diluted two-fold and added to wells of 384 well plate. HeLa-RW cells were then added (cytotoxicity testing), or cells and CVB3 were added to provide a low multiplicity of infection to determine concentration of peak activity or 50% maximal concentration. Selectivity index is defined as the 50% Cytotoxic concentration/50% activity concentration

[2] = system: eGFP-expressing recombinant CVB3; assay type: cell-based, coxsackievirus B3; conditions: for % of eGFP + cells, 0 Hr: compound added 0 hr post infection at its peak activity concentration, DMSO 26.0; for % of eGFP + cells, 0 Hr / % of eGFP + cells, 1 Hr / % of eGFP + cells, 2 Hr: read 6 hr post infection; for % of eGFP + cells, 1 Hr: compound added 1 hr post infection at its peak activity concentration, DMSO 23.7; for % of eGFP + cells, 2 Hr: compound added 2 hr post infection at its peak activity concentration, DMSO 24.8; for Inhibition of infected cells: eGFP-CVB3 m.o.i=1, compound added at time of infection, 6 hr post infection, 1-(% eGFP+ cells with compound/% with DMSO only)
HeLa-RW cells = assay type: cell-based; conditions: in words
Procedure: as §1, §2

coxsackievirus B3 (CVB3) [3] = assay: Cell viability assay, prevention of cell death caused by CVB3 infection; assay type: cell-based; conditions: Enterovirus B, HeLa, read-out: 50% effective concentration (EC50), CVB3 replication

Compound | activity when added 2 hours after infection begins (CVB3; virus produced six hours after infection (FIG. 7)) | Log10 reduction of virus titer (CVB3-H3) | titer of virus produced, PV-3 (poliovirus-3 (PV-3)) | titer of virus produced, PV-1 (poliovirus 1 (PV-1)) | Selectivity index (coxsackievirus B3 (CVB3) [1]) | IC50 (coxsackievirus B3 (CVB3) [1]) [µM] | EC (peak activity) (coxsackievirus B3 (CVB3) [1]) [µM] | % of eGFP + cells, 0 Hr [2] [%] | % of eGFP + cells, 1 Hr [2] [%] | % of eGFP + cells, 2 Hr [2] [%] | Inhibition of infected cells [2] [%] | CVB3 replication, compound added 1 hour or more after inoculation (CVB3; added 1 hour or more after inoculation (FIG. 7)) | CVB3 replication, compound added prior to inoculation (CVB3; added prior to inoculation of cultures (FIG. 7)) | cytotoxicity to HeLa cells (HeLa-RW cells) | EC50 (coxsackievirus B3 (CVB3) [3]) [µM]
CC(C)n1ncc2c(C(=O)Nc3ccccc3F)cc(-c3cccs3)nc21 [Compound 3, N-(2-Fluorophenyl)-1-isopropyl-6-(2-thienyl)-1H-pyrazolo [3,4-b]pyridine-4-carboxamide] | equivalently active | 4.5 | marked reduction | marked reduction | 175 | 1.14 | 3.13 | 0.0 | 0.0 | 0.0 | 100 |  |  |  | 
COc1ccc(C(=O)N2CCC(C(=O)c3ccc4c(c3)OCCO4)CC2)cc1F [Compound 45, 2,3-Dihydro-1,4-benzodioxin-6-yl [1-(3-fluoro-4-methoxybenzoyl)-4-piperidinyl] methanone] |  | 2.0 |  |  | 125 | 0.2 | 1.56 | 8.9 | 17.0 | 20.0 | 82.1 | less potent | markedly reduced | minimally cytotoxic | 0.2
